Kd data for 14 compounds are collected here from patent publication US20240109865A1, “INDAZOLE COMPOUNDS AS KINASE INHIBITORS” (TYRA BIOSCIENCES, INC., priority 2020, published 2024).

Holding throughout (experiment): Kinase assay, binding constants (Kd), kinase-tagged T7 phage, qPCR
One assay has as its target FGFR1 (Homo sapiens (Human), UniProt P11362). The method in brief: (§1)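 Competition binding: kinase-tagged T7 phage lysates mixed with immobilized biotinylated ligand on streptavidin beads plus compound (11-point 3-fold dilution series, 0.9% DMSO final). Bound kinase eluted with free ligand and quantified by qPCR. Kd from Hill equation fit, slope fixed at −1.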
The next assay has as its target FGFR2 (Homo sapiens (Human), UniProt P21802). The essentials:
as §1

A further assay has as its target FGFR3 (Homo sapiens (Human), UniProt P22607). The essentials: as §1
The target of a further assay is FGFR3 (V555M) (Homo sapiens (Human), UniProt P22607, V555M). To be noted: V555M mutant. The essentials: as §1
For a further assay, the target named is FGFR4 (Homo sapiens (Human), UniProt P22455). The method in brief:
as §1

Sequence of FGFR3 (P22607 23-806): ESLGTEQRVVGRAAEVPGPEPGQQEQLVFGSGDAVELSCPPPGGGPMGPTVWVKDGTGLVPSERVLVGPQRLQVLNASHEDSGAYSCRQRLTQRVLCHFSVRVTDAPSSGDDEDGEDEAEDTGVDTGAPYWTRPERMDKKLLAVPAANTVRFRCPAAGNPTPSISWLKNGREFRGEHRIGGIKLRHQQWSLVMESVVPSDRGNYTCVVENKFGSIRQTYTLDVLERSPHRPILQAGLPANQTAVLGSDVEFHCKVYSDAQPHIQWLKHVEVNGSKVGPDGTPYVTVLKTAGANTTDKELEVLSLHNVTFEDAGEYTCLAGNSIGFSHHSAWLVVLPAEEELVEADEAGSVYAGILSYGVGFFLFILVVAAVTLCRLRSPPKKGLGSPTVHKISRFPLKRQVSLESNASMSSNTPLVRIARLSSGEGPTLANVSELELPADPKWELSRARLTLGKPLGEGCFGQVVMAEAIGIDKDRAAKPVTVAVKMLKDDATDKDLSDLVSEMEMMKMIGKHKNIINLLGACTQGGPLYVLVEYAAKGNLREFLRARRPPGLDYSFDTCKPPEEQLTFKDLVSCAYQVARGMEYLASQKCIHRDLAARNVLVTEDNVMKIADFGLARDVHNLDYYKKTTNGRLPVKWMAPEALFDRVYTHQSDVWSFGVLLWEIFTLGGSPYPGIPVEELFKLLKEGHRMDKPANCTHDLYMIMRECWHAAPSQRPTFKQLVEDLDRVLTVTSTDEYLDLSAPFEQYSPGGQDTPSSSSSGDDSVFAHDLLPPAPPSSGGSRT
Sequence of FGFR1 (P11362 22-822): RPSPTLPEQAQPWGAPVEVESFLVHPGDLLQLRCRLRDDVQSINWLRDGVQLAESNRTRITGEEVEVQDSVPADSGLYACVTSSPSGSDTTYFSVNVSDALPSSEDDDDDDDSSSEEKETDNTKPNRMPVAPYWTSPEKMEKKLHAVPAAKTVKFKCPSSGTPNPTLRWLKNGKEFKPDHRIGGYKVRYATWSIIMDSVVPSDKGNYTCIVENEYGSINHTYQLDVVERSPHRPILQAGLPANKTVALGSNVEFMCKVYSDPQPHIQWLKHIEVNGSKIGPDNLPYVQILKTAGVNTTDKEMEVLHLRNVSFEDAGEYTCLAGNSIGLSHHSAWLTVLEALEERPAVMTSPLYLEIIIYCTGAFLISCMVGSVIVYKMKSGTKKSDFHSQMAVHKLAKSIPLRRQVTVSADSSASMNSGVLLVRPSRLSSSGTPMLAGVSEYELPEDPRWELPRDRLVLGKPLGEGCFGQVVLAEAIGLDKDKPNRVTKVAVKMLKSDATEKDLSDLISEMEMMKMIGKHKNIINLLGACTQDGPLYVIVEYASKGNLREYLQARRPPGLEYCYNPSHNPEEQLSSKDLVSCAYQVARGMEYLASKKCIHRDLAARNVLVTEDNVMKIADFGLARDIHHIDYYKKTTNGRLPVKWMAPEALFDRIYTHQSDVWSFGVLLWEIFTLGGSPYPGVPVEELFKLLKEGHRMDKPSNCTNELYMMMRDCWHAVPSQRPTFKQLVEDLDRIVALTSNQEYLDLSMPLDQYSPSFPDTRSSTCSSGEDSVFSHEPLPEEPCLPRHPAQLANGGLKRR
Sequence of FGFR2 (P21802 22-821): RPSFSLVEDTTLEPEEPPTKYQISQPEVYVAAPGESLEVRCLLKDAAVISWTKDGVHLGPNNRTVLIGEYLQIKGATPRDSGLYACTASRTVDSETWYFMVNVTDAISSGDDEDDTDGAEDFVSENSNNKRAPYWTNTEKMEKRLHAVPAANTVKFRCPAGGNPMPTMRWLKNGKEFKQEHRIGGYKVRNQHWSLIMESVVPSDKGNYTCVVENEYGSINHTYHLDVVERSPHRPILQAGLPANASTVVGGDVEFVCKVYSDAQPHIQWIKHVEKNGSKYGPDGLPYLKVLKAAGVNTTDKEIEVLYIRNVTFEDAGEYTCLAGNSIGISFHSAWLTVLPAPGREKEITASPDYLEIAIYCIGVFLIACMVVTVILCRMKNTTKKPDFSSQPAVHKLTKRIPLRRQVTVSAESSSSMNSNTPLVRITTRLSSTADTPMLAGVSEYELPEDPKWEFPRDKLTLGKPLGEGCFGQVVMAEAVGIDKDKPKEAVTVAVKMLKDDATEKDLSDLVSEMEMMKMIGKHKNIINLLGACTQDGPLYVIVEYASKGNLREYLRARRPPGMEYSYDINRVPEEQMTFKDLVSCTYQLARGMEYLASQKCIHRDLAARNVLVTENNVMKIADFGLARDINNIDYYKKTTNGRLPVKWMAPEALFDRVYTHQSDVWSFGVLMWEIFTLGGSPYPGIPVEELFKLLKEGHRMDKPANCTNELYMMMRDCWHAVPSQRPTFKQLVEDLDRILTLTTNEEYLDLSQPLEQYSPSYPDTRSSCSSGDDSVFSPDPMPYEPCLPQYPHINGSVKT
Sequence of FGFR3 (V555M) (P22607 23-806 V555M): as the sequence (P22607 23-806) above, with V533M counted along it
Sequence of FGFR4 (P22455 22-802): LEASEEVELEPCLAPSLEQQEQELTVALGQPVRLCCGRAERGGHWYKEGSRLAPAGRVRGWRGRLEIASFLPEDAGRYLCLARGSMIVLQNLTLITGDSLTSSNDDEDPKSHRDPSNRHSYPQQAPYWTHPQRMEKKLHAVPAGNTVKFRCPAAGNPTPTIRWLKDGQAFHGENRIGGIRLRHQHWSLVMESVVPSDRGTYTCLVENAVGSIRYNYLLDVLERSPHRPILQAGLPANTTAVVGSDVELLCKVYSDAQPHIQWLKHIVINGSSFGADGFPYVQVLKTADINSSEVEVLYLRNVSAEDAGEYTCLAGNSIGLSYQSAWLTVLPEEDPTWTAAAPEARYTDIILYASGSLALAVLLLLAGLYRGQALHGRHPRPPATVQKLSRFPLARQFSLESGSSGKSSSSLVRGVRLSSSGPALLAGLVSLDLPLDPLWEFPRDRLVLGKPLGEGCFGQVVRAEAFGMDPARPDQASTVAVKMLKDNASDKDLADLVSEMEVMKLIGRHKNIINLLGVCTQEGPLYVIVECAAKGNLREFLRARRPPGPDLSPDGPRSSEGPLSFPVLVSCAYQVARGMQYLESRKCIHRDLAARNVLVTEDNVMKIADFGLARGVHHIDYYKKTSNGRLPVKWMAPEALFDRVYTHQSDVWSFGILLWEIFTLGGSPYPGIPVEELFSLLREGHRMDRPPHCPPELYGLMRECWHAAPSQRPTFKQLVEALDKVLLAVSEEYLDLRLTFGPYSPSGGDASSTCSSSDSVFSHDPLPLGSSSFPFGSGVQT

As to `COC(=O)N1CCCC2(C1)CN(c1ccc(-c3n[nH]c4ccc(O[C@H](C)c5c(C)cnnc5C)cc34)cn1)C2` [Example 187, methyl 2-[5-[5-[(1R)-1-(3,5-dimethylpyridazin-4-yl)ethoxy]-1H-indazol-3-yl]-2-pyridyl]-2,8-diazaspiro[3.5]nonane-8-carboxylate], the Kd on FGFR1, on FGFR2, on FGFR3, at FGFR3 (V555M) and at FGFR4 was 1 to 20 nM each time.

On to `Cc1cnnc(C)c1[C@@H](C)Oc1ccc2[nH]nc(-c3ccc(N4CC5(CCCN(S(C)(=O)=O)C5)C4)nc3)c2c1` [Example 188, 5-[(1R)-1-(3,5-dimethylpyridazin-4-yl)ethoxy]-3-[6-(8-methylsulfonyl-2,8-diazaspiro[3.5]nonan-2-yl)-3-pyridyl]-1H-indazole], for which the Kd on FGFR1 lay in the range of 20 to 100 nM; at FGFR2, 1 to 20 nM; at FGFR3 it was 1 to 20 nM; at FGFR3 (V555M), 1 to 20 nM; on FGFR4 it was 1 to 20 nM.

In the case of `Cc1cnnc(C)c1[C@@H](C)Oc1ccc2[nH]nc(-c3ccc(N4CC5(CCCN(C(=O)OC(C)C)C5)C4)nc3)c2c1` [Example 189, isopropyl 2-[5-[5-[(1R)-1-(3,5-dimethylpyridazin-4-yl)ethoxy]-1H-indazol-3-yl]-2-pyridyl]-2,8-diazaspiro[3.5]nonane-8-carboxylate], the Kd lay in the range of 20 to 100 nM at FGFR1; 1 to 20 nM at FGFR2; 1 to 20 nM at FGFR3; 1 to 20 nM on FGFR3 (V555M); 1 to 20 nM on FGFR4.

On to `CCOC(=O)N1CC2(C1)CN(c1ccc(-c3n[nH]c4ccc(O[C@H](C)c5c(Cl)cnc(C)c5Cl)cc34)cn1)C2` [Example 190, ethyl 6-[5-[5-[(1R)-1-(3,5-dichloro-2-methyl-4-pyridyl)ethoxy]-1H-indazol-3-yl]-2-pyridyl]-2,6-diazaspiro[3.3]heptane-2-carboxylate], for which the Kd on FGFR1 was 100 to 300 nM; at FGFR2 it was 100 to 300 nM; on FGFR3, 1 to 20 nM; on FGFR3 (V555M), 1 to 20 nM; at FGFR4, 20 to 100 nM.

On to `COc1cc2[nH]nc(-c3ccc(N4CC5(C4)CN(S(C)(=O)=O)C5)nc3)c2cc1O[C@H](C)c1c(Cl)cncc1Cl` [Example 191, 5-[(1R)-1-(3,5-dichloro-4-pyridyl)ethoxy]-6-methoxy-3-[6-(2-methylsulfonyl-2,6-diazaspiro[3.3]heptan-6-yl)-3-pyridyl]-1H-indazole], for which the Kd on FGFR1, at FGFR2, on FGFR3, on FGFR3 (V555M) and on FGFR4 was 1 to 20 nM each time.

For `COc1cc2[nH]nc(-c3ccc(N4CC5(C4)CN(S(C)(=O)=O)C5)nc3)c2cc1O[C@@H](C)c1c(C)cnnc1C` [Example 192, 5-[(1S)-1-(3,5-dimethylpyridazin-4-yl)ethoxy]-6-methoxy-3-[6-(2-methylsulfonyl-2,6-diazaspiro[3.3]heptan-6-yl)-3-pyridyl]-1H-indazole], the Kd at FGFR1 lay within 100 to 300 nM; on FGFR2, 20 to 100 nM; on FGFR3 it was 1 to 20 nM; on FGFR3 (V555M), 1 to 20 nM; at FGFR4, 100 to 300 nM.

With `CCOC(=O)N1CC2(C1)CN(c1ccc(-c3n[nH]c4ccc(O[C@@H](C)c5c(Cl)cnc(F)c5Cl)cc34)cn1)C2` [Example 193, Ethyl 6-[5-[5-[(1S)-1-(3,5-dichloro-2-fluoro-4-pyridyl)ethoxy]-1H-indazol-3-yl]-2-pyridyl]-2,6-diazaspiro[3.3]heptane-2-carboxylate], the Kd was more than 300 nM at FGFR1; more than 300 nM on FGFR2; more than 300 nM on FGFR3; 100 to 300 nM at FGFR3 (V555M); more than 300 nM on FGFR4.

On to `COc1cc2[nH]nc(-c3ccc(N4CC5(C4)CN(S(C)(=O)=O)C5)nc3)c2cc1O[C@H](C)c1c(C)cnnc1C` [Example 194, 5-[(1R)-1-(3,5-dimethylpyridazin-4-yl)ethoxy]-6-methoxy-3-[6-(2-methylsulfonyl-2,6-diazaspiro[3.3]heptan-6-yl)-3-pyridyl]-1H-indazole], for which the Kd on FGFR1, at FGFR2, at FGFR3, on FGFR3 (V555M) and on FGFR4 was 1 to 20 nM throughout.

For the compound `COC(=O)N1CC2(C1)CN(c1ccc(-c3n[nH]c4ccc(O[C@H](C)c5c(Cl)cnc(F)c5Cl)cc34)cn1)C2` [Example 195, methyl 6-[5-[5-[(1R)-1-(3,5-dichloro-2-fluoro-4-pyridyl)ethoxy]-1H-indazol-3-yl]-2-pyridyl]-2,6-diazaspiro[3.3]heptane-2-carboxylate], the Kd at FGFR1 is 100 to 300 nM; at FGFR2, 20 to 100 nM; on FGFR3, 1 to 20 nM; on FGFR3 (V555M), 1 to 20 nM; on FGFR4, 20 to 100 nM.

Take `CCOC(=O)N1CC2(C1)CN(c1ccc(-c3n[nH]c4ccc(O[C@H](C)c5c(Cl)cnc(F)c5Cl)cc34)cn1)C2` [Example 196, ethyl 6-[5-[5-[(1R)-1-(3,5-dichloro-2-fluoro-4-pyridyl)ethoxy]-1H-indazol-3-yl]-2-pyridyl]-2,6-diazaspiro[3.3]heptane-2-carboxylate]: the Kd was in the range of 100 to 300 nM on FGFR1; 100 to 300 nM on FGFR2; 1 to 20 nM on FGFR3; 1 to 20 nM on FGFR3 (V555M); 20 to 100 nM at FGFR4.

Consider `C[C@@H](Oc1ccc2[nH]nc(-c3ccc(N4CC5(C4)CN(S(C)(=O)=O)C5)nc3)c2c1)c1c(Cl)cnc(F)c1Cl` [Example 197, 5-[(1R)-1-(3,5-dichloro-2-fluoro-4-pyridyl)ethoxy]-3-[6-(2-methylsulfonyl-2,6-diazaspiro[3.3]heptan-6-yl)-3-pyridyl]-1H-indazole], for which the Kd at FGFR1 was 20 to 100 nM; on FGFR2 it was 20 to 100 nM; at FGFR3 it was 1 to 20 nM; at FGFR3 (V555M), 1 to 20 nM; on FGFR4, 1 to 20 nM.

Consider `COC(=O)N1CC2(C1)CN(c1ccc(-c3n[nH]c4ccc(O[C@@H](C)c5c(Cl)cnc(F)c5Cl)cc34)cn1)C2` [Example 198, methyl 6-[5-[5-[(1S)-1-(3,5-dichloro-2-fluoro-4-pyridyl)ethoxy]-1H-indazol-3-yl]-2-pyridyl]-2,6-diazaspiro[3.3]heptane-2-carboxylate], for which the Kd on FGFR1 was more than 300 nM; on FGFR2, more than 300 nM; on FGFR3 it was 100 to 300 nM; at FGFR3 (V555M) it was 20 to 100 nM; on FGFR4, more than 300 nM.

Take `C[C@H](Oc1ccc2[nH]nc(-c3ccc(N4CC5(C4)CN(S(C)(=O)=O)C5)nc3)c2c1)c1c(Cl)cnc(F)c1Cl` [Example 199, 5-[(1S)-1-(3,5-dichloro-2-fluoro-4-pyridyl)ethoxy]-3-[6-(2-methylsulfonyl-2,6-diazaspiro[3.3]heptan-6-yl)-3-pyridyl]-1H-indazole]: the dissociation constant Kd at FGFR1 was more than 300 nM; on FGFR2, more than 300 nM; at FGFR3 it was 100 to 300 nM; at FGFR3 (V555M), 20 to 100 nM; at FGFR4, more than 300 nM.

Turning to `COc1c(O[C@H](C)c2c(C)cnnc2C)ccc2[nH]nc(-c3ccc(N4CC5(C4)CN(S(C)(=O)=O)C5)nc3)c12` [Example 200, 5-[(1R)-1-(3,5-dimethylpyridazin-4-yl)ethoxy]-4-methoxy-3-[6-(2-methylsulfonyl-2,6-diazaspiro[3.3]heptan-6-yl)-3-pyridyl]-1H-indazole], the Kd was more than 300 nM at FGFR1; more than 300 nM at FGFR2; more than 300 nM at FGFR3; 100 to 300 nM at FGFR3 (V555M); more than 300 nM on FGFR4.
